# From patent US12617779B2, “Self degradation-type CDK9 inhibitor prodrug and liposome encapsulating same” (Sumitomo Pharma Co., Ltd., priority 2021, dated 2026)
# Assay: Evaluation of conversion rate to active form in buffer solution (Experimental Example 1)
# Format: physicochemical
# Details: for Production rate of Alvocidib / Residual rate: 37° C., 25 umol/L in buffer solution
# How it was run: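 HPLC read-out: residual parent and Alvocidib production rate after 0, 0.5, 1, 2 and 3 hours. Compounds sat at 25 umol/L, 37° C, in buffers from pH 5.0 to 7.4 (50 mM citrate below pH 6.0, 50 mM phosphate otherwise).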
structure (smiles),measurement,setting,value
"CN1CC[C@H](c2c(OC(=O)N(CCC(F)(F)F)CC3CCCCN3)cc(O)c3c(=O)cc(-c4ccccc4Cl)oc23)[C@H](O)C1 (stereo partly drawn) [Example 13, 2-(2-chlorophenyl)-5-hydroxy-8-[(3S,4R)-3-hydroxy-1-methylpiperidin-4-yl]-4-oxo-4H-1-benzopyran-7-yl [(piperidin-2-yl)methyl](3,3,3-trifluoropropyl)carbamate]",Production rate of Alvocidib,"pH5.0, 0 hr",2.1%
same,Residual rate,"pH5.0, 0 hr",82.1%
same,Stability in buffer solution at pH 5,"pH 5, 37° C., up to 2 or 3 hours",stable
same,Production rate of Alvocidib,"pH5.0, 0.5 hr",3.9%
same,Residual rate,"pH5.0, 0.5 hr",81.7%
same,Production rate of Alvocidib,"pH5.0, 1 hr",4.9%
same,Residual rate,"pH5.0, 1 hr",80.3%
same,Production rate of Alvocidib,"pH5.0, 2 hr",6.3%
same,Residual rate,"pH5.0, 2 hr",78.0%
same,Production rate of Alvocidib,"pH5.0, 3 hr",8.0%
same,Residual rate,"pH5.0, 3 hr",76.1%
same,Production rate of Alvocidib,"pH5.5, 0 hr",2.5%
same,Residual rate,"pH5.5, 0 hr",82.7%
same,Production rate of Alvocidib,"pH5.5, 0.5 hr",5.5%
same,Residual rate,"pH5.5, 0.5 hr",79.2%
same,Production rate of Alvocidib,"pH5.5, 1 hr",8.6%
same,Residual rate,"pH5.5, 1 hr",74.6%
same,Production rate of Alvocidib,"pH5.5, 2 hr",13.9%
same,Residual rate,"pH5.5, 2 hr",67.1%
same,Production rate of Alvocidib,"pH5.5, 3 hr",17.7%
same,Residual rate,"pH5.5, 3 hr",61.8%
same,Production rate of Alvocidib,"pH6.0, 0 hr",3.3%
same,Residual rate,"pH6.0, 0 hr",81.3%
same,Production rate of Alvocidib,"pH6.0, 0.5 hr",11.6%
same,Residual rate,"pH6.0, 0.5 hr",69.8%
same,Production rate of Alvocidib,"pH6.0, 1 hr",21.6%
same,Residual rate,"pH6.0, 1 hr",56.6%
same,Production rate of Alvocidib,"pH6.0, 2 hr",33.3%
same,Residual rate,"pH6.0, 2 hr",40.2%
same,Production rate of Alvocidib,"pH6.0, 3 hr",42.5%
same,Residual rate,"pH6.0, 3 hr",28.3%
same,Production rate of Alvocidib,"pH6.5, 0 hr",3.7%
same,Residual rate,"pH6.5, 0 hr",81.4%
same,Production rate of Alvocidib,"pH6.5, 0.5 hr",27.5%
same,Residual rate,"pH6.5, 0.5 hr",47.7%
same,Production rate of Alvocidib,"pH6.5, 1 hr",47.7%
same,Residual rate,"pH6.5, 1 hr",22.2%
same,Production rate of Alvocidib,"pH6.5, 2 hr",56.7%
same,Residual rate,"pH6.5, 2 hr",9.9%
same,Production rate of Alvocidib,"pH6.5, 3 hr",65.5%
same,Residual rate,"pH6.5, 3 hr",2.8%
same,Production rate of Alvocidib,"pH7.0, 0 hr",5.4%
same,Residual rate,"pH7.0, 0 hr",78.3%
same,Production rate of Alvocidib,"pH7.0, 0.5 hr",49.3%
same,Residual rate,"pH7.0, 0.5 hr",18.7%
same,Production rate of Alvocidib,"pH7.0, 1 hr",65.9%
same,Residual rate,"pH7.0, 1 hr",2.7%
same,Production rate of Alvocidib,"pH7.0, 2 hr",65.1%
same,Residual rate,"pH7.0, 2 hr",0.4%
same,Production rate of Alvocidib,"pH7.0, 3 hr",69.9%
same,Residual rate,"pH7.0, 3 hr",0.0%
same,Production rate of Alvocidib,"pH7.4, 0 hr",9.2%
same,Residual rate,"pH7.4, 0 hr",68.5%
same,Conversion to Alvocidib at pH 7.4,"pH 7.4, 37° C., up to 3 hours",rapidly converted to Alvocidib
same,Production rate of Alvocidib,"pH7.4, 0.5 hr",65.8%
same,Residual rate,"pH7.4, 0.5 hr",2.2%
same,Production rate of Alvocidib,"pH7.4, 1 hr",65.5%
same,Residual rate,"pH7.4, 1 hr",0.2%
same,Production rate of Alvocidib,"pH7.4, 2 hr",68.6%
same,Residual rate,"pH7.4, 2 hr",0.0%
same,Production rate of Alvocidib,"pH7.4, 3 hr",66.1%
same,Residual rate,"pH7.4, 3 hr",0.0%
